Data on 31 compounds can be found in ChEMBL document CHEMBL4325880, “Design, synthesis and biological evaluation of novel zanamivir derivatives as potent neuraminidase inhibitors” (Bioorg Med Chem Lett, 2018).

In one data set the test system is Influenza A virus. Nature of the data set: Antiviral activity against Influenza A virus (A/WSN/1933(H1N1)) infected in MDCK cells assessed as reduction in virus-induced cytopathic effect measured everyday. The class given is functional, organism-based. Particulars: for IC50: read-out: pIC50 (converted); for pIC50: read-out: IC50. (Protection from cytopathic effect is a common read-out in antiviral testing.)

A short description of data set [1]: Inhibition of Clostridium neuraminidase preincubated for 2 mins followed by neuraminidase fluorescent addition and measured after 30 mins by fluorescence assay.
A short description of data set [2]: Cytotoxicity against MDCK cells assessed as reduction in cell viability after 72 hrs by CellTiter-Glo assay. It is filed as cell-based, Canis lupus familiaris. The settings on record: dog.
A short description of data set [3]: Selectivity index, ratio of CC50 for MDCK cells to IC50 for Influenza A virus (A/WSN/1933(H1N1)). The class given is toxicity. Particulars: dog, read-out: Ratio CC50/IC50.

SMILES strings stand for the structures. pIC50: −log10 of the molar value. Bounds are passed on as bounds.

On to `CC(=O)N[C@H]1[C@H]([C@H](O)[C@H](O)CO)OC(C(=O)O)=C[C@@H]1NC(=N)NC(=O)CSc1ccc2ccccc2c1`, for which the IC50 in the data set with Influenza A virus is 20.1 nM. Still for that read-out and setting: the same measure for `COc1cc(CCC(=O)NC(=N)N[C@H]2C=C(C(=O)O)O[C@@H]([C@H](O)[C@H](O)CO)[C@@H]2NC(C)=O)cc(OC)c1OC`: 239 nM; for `CC(=O)N[C@H]1[C@H]([C@H](O)[C@H](O)CO)OC(C(=O)O)=C[C@@H]1NC(=N)NC(=O)Cc1ccc2ccccc2c1`: 55 nM; for `CC(=O)N[C@H]1[C@H]([C@H](O)[C@H](O)CO)OC(C(=O)O)=C[C@@H]1NC(=N)NC(=O)c1ccc([N+](=O)[O-])cc1`: 152 nM. Same read-out and setting: the same measure for `COc1ccccc1CCC(=O)NC(=N)N[C@H]1C=C(C(=O)O)O[C@@H]([C@H](O)[C@H](O)CO)[C@@H]1NC(C)=O`: 196 nM; for `CC(=O)N[C@H]1[C@H]([C@H](O)[C@H](O)CO)OC(C(=O)O)=C[C@@H]1NC(=N)NC(=O)CC12CC3CC(CC(C3)C1)C2`: 275 nM. Still for that read-out and setting: the same measure for `CC(=O)N[C@H]1[C@H]([C@H](O)[C@H](O)CO)OC(C(=O)O)=C[C@@H]1NC(=N)NC(=O)CC(C)CCC=C(C)C` (stereo not given in full): 541 nM; for `CC(=O)N[C@H]1[C@H]([C@H](O)[C@H](O)CO)OC(C(=O)O)=C[C@@H]1NC(=N)NC(=O)CCc1ccccc1C(F)(F)F`: 332 nM; for `CC(=O)N[C@H]1[C@H]([C@H](O)[C@H](O)CO)OC(C(=O)O)=C[C@@H]1NC(=N)NC(=O)CCc1ccc2ccccc2c1`: 74.8 nM. In the case of `CC(=O)N[C@H]1[C@H]([C@H](O)[C@H](O)CO)OC(C(=O)O)=C[C@@H]1NC(=N)NC(=O)CCCCC1CCCCC1`, in the data set with Influenza A virus, the IC50 is 260 nM. On the same count and under the same terms, with `CC(=O)N[C@H]1[C@H]([C@H](O)[C@H](O)CO)OC(C(=O)O)=C[C@@H]1NC(=N)NCCSc1ccccc1` the figure was 39400 nM. On to `CC(=O)N[C@H]1[C@H]([C@H](O)[C@H](O)CO)OC(C(=O)O)=C[C@@H]1NC(=N)NC(=O)CCc1ccccc1`, for which, in the data set on Influenza A virus, the IC50 was 203 nM.

For `CC(=O)N[C@H]1[C@H]([C@H](O)[C@H](O)CO)OC(C(=O)O)=C[C@@H]1NC(=N)NC(=O)CCc1ccc(N)cc1`, the IC50 in the data set on Influenza A virus was 176 nM. On the same count and under the same terms, with `CCC(C)C(=O)NC(=N)N[C@H]1C=C(C(=O)O)O[C@@H]([C@H](O)[C@H](O)CO)[C@@H]1NC(C)=O` (stereo not given in full) the figure was 774 nM; with `CC(=O)N[C@H]1[C@H]([C@H](O)[C@H](O)CO)OC(C(=O)O)=C[C@@H]1NC(=N)NC(=O)CCCc1ccc(N)cc1`, 421 nM; with `CC(=O)N[C@H]1[C@H]([C@H](O)[C@H](O)CO)OC(C(=O)O)=C[C@@H]1NC(=N)NC(=O)CCCCCc1ccccc1`, 233 nM. The same measure, in the same setting: with `CC(=O)N[C@H]1[C@H]([C@H](O)[C@H](O)CO)OC(C(=O)O)=C[C@@H]1NC(=N)NC(=O)CCC1CCOC1` (stereo not given in full) the figure was 1200 nM.

`COc1ccccc1CC(=O)NC(=N)N[C@H]1C=C(C(=O)O)O[C@@H]([C@H](O)[C@H](O)CO)[C@@H]1NC(C)=O`: in the data set on Influenza A virus, the IC50 was 209 nM. On the same count and under the same terms, the same measure for `CC(=O)N[C@H]1[C@H]([C@H](O)[C@H](O)CO)OC(C(=O)O)=C[C@@H]1NC(=N)NC(=O)CSc1ccccc1`: 189 nM; for `CC(=O)N[C@H]1[C@H]([C@H](O)[C@H](O)CO)OC(C(=O)O)=C[C@@H]1NC(=N)NC(=O)/C=C/c1cc(F)cc(F)c1`: 166 nM. Turning to `CC(=O)N[C@H]1[C@H]([C@H](O)[C@H](O)CO)OC(C(=O)O)=C[C@@H]1NC(=N)NC(=O)CCc1ccccc1Br`, the IC50 in the data set on Influenza A virus was 134 nM. The same measure, in the same setting: with `CC(=O)N[C@H]1[C@H]([C@H](O)[C@H](O)CO)OC(C(=O)O)=C[C@@H]1NC(=N)NC(=O)Cc1ccccc1` the figure was 46 nM. Still for that read-out and setting: the same measure for `CC(=O)N[C@H]1[C@H]([C@H](O)[C@H](O)CO)OC(C(=O)O)=C[C@@H]1NC(=N)NC(=O)Cc1cccc2ccccc12`: 98.4 nM; for `CC(=O)N[C@H]1[C@H]([C@H](O)[C@H](O)CO)OC(C(=O)O)=C[C@@H]1NC(=N)NC(=O)CCc1ccccc1C`: 462 nM; for `CC(=O)N[C@H]1[C@H]([C@H](O)[C@H](O)CO)OC(C(=O)O)=C[C@@H]1NC(=N)NC(=O)CCCOc1ccccc1`: 397 nM.

Take `CC(=O)N[C@H]1[C@H]([C@H](O)[C@H](O)CO)OC(C(=O)O)=C[C@@H]1NC(=N)NC(=O)CCCCCCCCCCOc1ccccc1`: the IC50 in the data set with Influenza A virus is 203 nM. What is called pIC50 is −log10 of the IC50, conventionally taken in molar units. Usually CC50 stands for the concentration at which the toxic effect on the cells reaches its halfway point. `CC(=O)N[C@H]1[C@H]([C@H](O)[C@H](O)CO)OC(C(=O)O)=C[C@@H]1NC(=N)NC(=O)Cc1ccc(F)cc1`: the negative logarithm of the IC50 (pIC50) in data set [1] is 4.45; in the data set with Influenza A virus, 6.17. Further, the CC50 at 72 h in data set [2] was > 100000 nM. Besides, the selectivity ratio in data set [3] is > 149.

Turning to `CC(=O)N[C@H]1[C@H]([C@H](O)[C@H](O)CO)OC(C(=O)O)=C[C@@H]1NC(=N)NCCc1ccc2ccccc2c1`, the IC50 in the data set on Influenza A virus was 34700 nM. Take `CC(=O)N[C@H]1[C@H]([C@H](O)[C@H](O)CO)OC(C(=O)O)=C[C@@H]1NC(=N)NC(=O)CCOc1ccccc1`: the IC50 in the data set with Influenza A virus was 180 nM. For `CC(=O)N[C@@H]1C(NC(=N)NC(=O)c2ccc(-c3ccc(O)cc3)cc2)C=C(C(=O)O)O[C@H]1[C@H](O)C(O)CO` (single isomer, unassigned), the pIC50 in data set [1] is 4.01; with Influenza A virus it was 5.16. The CC50 at 72 h in data set [2] is > 100000 nM. Further, in data set [3], the selectivity ratio was > 14.

As for `CC(=O)N[C@H]1[C@H]([C@H](O)[C@H](O)CO)OC(C(=O)O)=C[C@@H]1NC(=N)N` [ZANAMIVIR], the values for the pIC50 (in data set [1]; with Influenza A virus) were 3.89 and 6.06, respectively. Besides, the CC50 at 72 h in data set [2] was > 100000 nM. Further, the selectivity ratio in data set [3] is > 115.
